Organism: Rattus norvegicus
Test: DrugMatrix - Regimen: Daily Repeat
Format: toxicity, organism-based, Sprague-Dawley
Parameters: regimen Daily Repeat, gender Male, age 6-8 weeks
Conditions: in vivo, po, route oral GAVAGE, vehicle 100 % WATER; for ABSOLUTE BASOPHIL / ABSOLUTE EOSINOPHIL / ABSOLUTE LYMPHOCYTE / ABSOLUTE MONOCYTE / ABSOLUTE SEGMENTED NEUTROPHIL / BASOPHIL / EOSINOPHIL / ERYTHROCYTE COUNT / HEMATOCRIT / HEMOGLOBIN / LEUKOCYTE COUNT / LYMPHOCYTE / MEAN CORPUSCULAR HEMOGLOBIN / MEAN CORPUSCULAR HEMOGLOBIN CONCENTRATION / MEAN CORPUSCULAR VOLUME / MONOCYTE / NEUTROPHIL / NUCLEATED RED BLOOD CELLS / PLATELET COUNT: tissue Blood; for ALANINE AMINOTRANSFERASE / ALBUMIN / ALKALINE PHOSPHATASE / ASPARTATE AMINOTRANSFERASE / BLOOD UREA NITROGEN / CARBON DIOXIDE / CHLORIDE / CHOLESTEROL / CREATINE PHOSPHOKINASE / CREATININE / GLUCOSE / LACTATE DEHYDROGENASE / LIPASE / PHOSPHORUS / POTASSIUM / SODIUM / TOTAL BILIRUBIN / TOTAL PROTEIN / URIC ACID: tissue Plasma
[1] = 14 mg/kg, 120 h, dose level Low, time 5 day
[2] = 1000 mg/kg, 72 h, dose level High, time 3 day
[3] = 1000 mg/kg, 120 h, dose level High, time 5 day

## C[C@H]1c2cccc(O)c2C(=O)C2=C(O)[C@]3(O)C(=O)C(C(N)=O)=C(O)[C@@H](N(C)C)[C@@H]3[C@@H](O)[C@@H]21.O [DOXYCYCLINE]
[1]
  ABSOLUTE BASOPHIL: 0 CELLS/uL
  ABSOLUTE EOSINOPHIL: 22.33 CELLS/uL
  ABSOLUTE LYMPHOCYTE: 6462.67 CELLS/uL
  ABSOLUTE MONOCYTE: 105.33 CELLS/uL
  ABSOLUTE SEGMENTED NEUTROPHIL: 909.67 CELLS/uL
  BASOPHIL: 0%
  EOSINOPHIL: 0.33%
  ERYTHROCYTE COUNT: 5.81 x10E6/uL
  HEMATOCRIT: 36.47%
  HEMOGLOBIN: 13.87 G/DL
  LEUKOCYTE COUNT: 7.5 x10E3/uL
  LYMPHOCYTE: 86.67%
  MEAN CORPUSCULAR HEMOGLOBIN: 23.9 pg
  MEAN CORPUSCULAR HEMOGLOBIN CONCENTRATION: 38.1 G/DL
  MEAN CORPUSCULAR VOLUME: 62.77 fL
  MONOCYTE: 1.33%
  NEUTROPHIL: 11.67%
  NUCLEATED RED BLOOD CELLS: 0.33 /100WBC
  PLATELET COUNT: 1055 x10E3/uL
  ALANINE AMINOTRANSFERASE: 56.67 u/L
  ALBUMIN: 4.23 G/DL
  ALKALINE PHOSPHATASE: 411.33 u/L
  ASPARTATE AMINOTRANSFERASE: 92 u/L
  BLOOD UREA NITROGEN: 17.67 mg/dL
  CARBON DIOXIDE: 32 mmol/L
  CHLORIDE: 101.67 MEQ/L
  CHOLESTEROL: 67 mg/dL
  CREATINE PHOSPHOKINASE: 551.33 u/L
  CREATININE: 0.19 mg/dL
  GLUCOSE: 154.67 mg/dL
  LACTATE DEHYDROGENASE: 117 u/L
  LIPASE: 11 u/L
  PHOSPHORUS: 11.33 mg/dL
  POTASSIUM: 6.02 MEQ/L
  SODIUM: 147 MEQ/L
  TOTAL BILIRUBIN: 0.1 mg/dL
  TOTAL PROTEIN: 6.37 G/DL
  URIC ACID: 0.8 mg/dL
[2]
  ABSOLUTE BASOPHIL: 0 CELLS/uL
  ABSOLUTE EOSINOPHIL: 0 CELLS/uL
  ABSOLUTE LYMPHOCYTE: 7696.67 CELLS/uL
  ABSOLUTE MONOCYTE: 0 CELLS/uL
  ABSOLUTE SEGMENTED NEUTROPHIL: 736.67 CELLS/uL
  BASOPHIL: 0%
  EOSINOPHIL: 0%
  ERYTHROCYTE COUNT: 5.23 x10E6/uL
  HEMATOCRIT: 32.1%
  HEMOGLOBIN: 12.57 G/DL
  LEUKOCYTE COUNT: 8.43 x10E3/uL
  LYMPHOCYTE: 92.33%
  MEAN CORPUSCULAR HEMOGLOBIN: 24.07 pg
  MEAN CORPUSCULAR HEMOGLOBIN CONCENTRATION: 39.17 G/DL
  MEAN CORPUSCULAR VOLUME: 61.4 fL
  MONOCYTE: 0%
  NEUTROPHIL: 7.67%
  NUCLEATED RED BLOOD CELLS: 0 /100WBC
  PLATELET COUNT: 1333.67 x10E3/uL
  ALANINE AMINOTRANSFERASE: 59.33 u/L
  ALBUMIN: 4.03 G/DL
  ALKALINE PHOSPHATASE: 294.67 u/L
  ASPARTATE AMINOTRANSFERASE: 81 u/L
  BLOOD UREA NITROGEN: 14.67 mg/dL
  CARBON DIOXIDE: 32.33 mmol/L
  CHLORIDE: 103 MEQ/L
  CHOLESTEROL: 89 mg/dL
  CREATINE PHOSPHOKINASE: 186 u/L
  CREATININE: 0.18 mg/dL
  GLUCOSE: 146 mg/dL
  LACTATE DEHYDROGENASE: 161.33 u/L
  LIPASE: 12.33 u/L
  PHOSPHORUS: 10.9 mg/dL
  POTASSIUM: 5.89 MEQ/L
  SODIUM: 146.35 MEQ/L
  TOTAL BILIRUBIN: 0.0667 mg/dL
  TOTAL PROTEIN: 5.97 G/DL
  URIC ACID: 1.2 mg/dL
[3]
  ABSOLUTE BASOPHIL: 0 CELLS/uL
  ABSOLUTE EOSINOPHIL: 19.67 CELLS/uL
  ABSOLUTE LYMPHOCYTE: 6922.33 CELLS/uL
  ABSOLUTE MONOCYTE: 67.67 CELLS/uL
  ABSOLUTE SEGMENTED NEUTROPHIL: 1023.67 CELLS/uL
  BASOPHIL: 0%
  EOSINOPHIL: 0.33%
  ERYTHROCYTE COUNT: 5.99 x10E6/uL
  HEMATOCRIT: 36.73%
  HEMOGLOBIN: 14.13 G/DL
  LEUKOCYTE COUNT: 8.03 x10E3/uL
  LYMPHOCYTE: 85.67%
  MEAN CORPUSCULAR HEMOGLOBIN: 23.63 pg
  MEAN CORPUSCULAR HEMOGLOBIN CONCENTRATION: 38.53 G/DL
  MEAN CORPUSCULAR VOLUME: 61.37 fL
  MONOCYTE: 1%
  NEUTROPHIL: 13%
  NUCLEATED RED BLOOD CELLS: 0 /100WBC
  PLATELET COUNT: 1104.67 x10E3/uL
  ALANINE AMINOTRANSFERASE: 56 u/L
  ALBUMIN: 3.97 G/DL
  ALKALINE PHOSPHATASE: 312 u/L
  ASPARTATE AMINOTRANSFERASE: 84.33 u/L
  BLOOD UREA NITROGEN: 21 mg/dL
  CARBON DIOXIDE: 32 mmol/L
  CHLORIDE: 99.67 MEQ/L
  CHOLESTEROL: 87.33 mg/dL
  CREATINE PHOSPHOKINASE: 239.67 u/L
  CREATININE: 0.26 mg/dL
  GLUCOSE: 138 mg/dL
  LACTATE DEHYDROGENASE: 100.67 u/L
  LIPASE: 11.33 u/L
  PHOSPHORUS: 10.53 mg/dL
  POTASSIUM: 6.12 MEQ/L
  SODIUM: 146.5 MEQ/L
  TOTAL BILIRUBIN: 0.13 mg/dL
  TOTAL PROTEIN: 5.87 G/DL
  URIC ACID: 0.97 mg/dL

Source: ChEMBL document CHEMBL3885881, “DrugMatrix”
